Measured values from patent US20230127944A1, “BROAD-SPECTRUM CARBAPENEMS” (priority 2019, published 2023).
≈ marks a conversion by molar mass, not a printed value.

Assays:
Type in all cases: cell-based
[1] = test system: S. aureus ATCC 33591 (methicillin-resistant); assay: broth microdilution MIC assay, S. aureus 33591; conditions: Staphylococcus aureus, ATCC33591; S. aureus 33591, methicillin-resistant; read-out: MIC, S. aureus 33591
Summary of the method: (§1)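 MIC is the lowest compound concentration with no visible growth after 16-20 h at 37° C. Testing followed CLSI microdilution, with 2-fold compound series in Mueller-Hinton broth supplemented with divalent cations and a starting inoculum of 5×10^5 CFU/mL.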

S. aureus USA 300 = assay: broth microdilution MIC assay, S. aureus USA300; conditions: Staphylococcus aureus; S. aureus USA300 (MRSA); read-out: MIC, S. aureus USA300
Summary of the method: as §1

S. aureus USA 600 = assay: broth microdilution MIC assay, S. aureus USA600; conditions: Staphylococcus aureus; S. aureus USA600 (MRSA); read-out: MIC, S. aureus USA600
Summary of the method: as §1

[2] = test system: E. coli ATCC 25922 (wild-type/QC strain); assay: broth microdilution MIC assay, E. coli 25922; conditions: Escherichia coli, ATCC25922; read-out: MIC, E. coli 25922
Summary of the method: as §1

[3] = test system: P. aeruginosa ATCC 27853 (wild-type/QC strain); assay: broth microdilution MIC assay, P. aeruginosa 27853; conditions: Pseudomonas aeruginosa, ATCC27853; read-out: MIC, P. aeruginosa 27853
Summary of the method: as §1

[4] = test system: P. aeruginosa 35151 (hyper-permeable strain); assay: broth microdilution MIC assay, P. aeruginosa 35151; conditions: Pseudomonas aeruginosa, read-out: MIC, P. aeruginosa 35151
Summary of the method: as §1

[5] = test system: P. aeruginosa ΔmexAB-OprM (an efflux pump knockout); assay: broth microdilution MIC assay, P. aeruginosa ΔmexAB-OprM; conditions: Pseudomonas aeruginosa, read-out: MIC, P. aeruginosa ΔmexAB-OprM
Summary of the method: as §1

P. aeruginosa Paeβ-17 = assay: broth microdilution MIC assay, P. aeruginosa Paeβ-17; conditions: Pseudomonas aeruginosa, read-out: MIC, P. aeruginosa Paeβ-17
Summary of the method: as §1

Structure (SMILES)	MIC [1] [µg/mL]	MIC (S. aureus USA 300) [µg/mL]	MIC (S. aureus USA 600) [µg/mL]	MIC [2] [µg/mL]	MIC [3] [µg/mL]	MIC [4] [µg/mL]	MIC [5] [µg/mL]	MIC (P. aeruginosa Paeβ-17) [µg/mL]
C[C@@H](O)[C@H]1C(=O)N2C(C(=O)O)=C(SC3CN(CC4CCN(C)CC4)C3)[C@H](C)[C@H]12 [Example 40, (4R,5S,6S)-6-((R)-1-hydroxyethyl)-4-methyl-3-((1-((1-methylpiperidin-4-yl)methyl)azetidin-3-yl)thio)-7-oxo-1-azabicyclo[3.2.0]hept-2-ene-2-carboxylic acid]	8 to 32 (≈ 19.5 to 78.1 µM)	1 to 4 (≈ 2.44 to 9.77 µM)	1 to 4 (≈ 2.44 to 9.77 µM)	< 1	8 to 32 (≈ 19.5 to 78.1 µM)	< 1	1 to 4 (≈ 2.44 to 9.77 µM)	8 to 32 (≈ 19.5 to 78.1 µM)
C[C@@H](O)[C@H]1C(=O)N2C(C(=O)O)=C(S[C@H]3C[C@@H](N[C@H]4CC[C@@H](N)CC4)C3)[C@H](C)[C@H]12 [Example 62, (4R,5S,6S)-3-(((1S,3S)-3-(((1S,4R)-4-aminocyclohexyl)amino)cyclobutyl)thio)-6-((R)-1-hydroxyethyl)-4-methyl-7-oxo-1-azabicyclo[3.2.0]hept-2-ene-2-carboxylic acid]	1 to 4 (≈ 2.44 to 9.77 µM)	1 to 4 (≈ 2.44 to 9.77 µM)	1 to 4 (≈ 2.44 to 9.77 µM)	< 1	1 to 4 (≈ 2.44 to 9.77 µM)	< 1	1 to 4 (≈ 2.44 to 9.77 µM)	8 to 32 (≈ 19.5 to 78.1 µM)
C[C@@H](O)[C@H]1C(=O)N2C(C(=O)O)=C(S[C@H]3C[C@@H](N[C@H]4CC[C@@H](N)C4)C3)[C@H](C)[C@H]12 [Example 76, (4R,5S,6S)-3-(((1R,3S)-3-(((1S,3R)-3-aminocyclopentyl)amino)cyclobutyl)thio)-6-((R)-1-hydroxyethyl)-4-methyl-7-oxo-1-azabicyclo[3.2.0]hept-2-ene-2-carboxylic acid]	8 to 32 (≈ 20.2 to 80.9 µM)	1 to 4 (≈ 2.53 to 10.1 µM)	1 to 4 (≈ 2.53 to 10.1 µM)	< 1	1 to 4 (≈ 2.53 to 10.1 µM)	< 1	8 to 32 (≈ 20.2 to 80.9 µM)	1 to 4 (≈ 2.53 to 10.1 µM)
C[C@@H](O)[C@H]1C(=O)N2C(C(=O)O)=C(S[C@@H]3CCN(Cc4cnc(N)nc4)C3)[C@H](C)[C@H]12 [Example 24, (4R,5S,6S)-3-(((R)-1-((2-aminopyrimidin-5-yl)methyl)pyrrolidin-3-yl)thio)-6-((R)-1-hydroxyethyl)-4-methyl-7-oxo-1-azabicyclo[3.2.0]hept-2-ene-2-carboxylic acid]	8 to 32 (≈ 19.1 to 76.3 µM)	1 to 4 (≈ 2.38 to 9.54 µM)	1 to 4 (≈ 2.38 to 9.54 µM)	< 1	8 to 32 (≈ 19.1 to 76.3 µM)	< 1	1 to 4 (≈ 2.38 to 9.54 µM)	> 32
C[C@@H](O)[C@H]1C(=O)N2C(C(=O)O)=C(S[C@H]3C[C@@H](N[C@H]4CC[C@H](N)C4)C3)[C@H](C)[C@H]12 [Example 75, (4R,5S,6S)-3-(((1R,3S)-3-(((1S,3S)-3-aminocyclopentyl)amino)cyclobutyl)thio)-6-((R)-1-hydroxyethyl)-4-methyl-7-oxo-1-azabicyclo[3.2.0]hept-2-ene-2-carboxylic acid]	8 to 32 (≈ 20.2 to 80.9 µM)	1 to 4 (≈ 2.53 to 10.1 µM)	1 to 4 (≈ 2.53 to 10.1 µM)	< 1	1 to 4 (≈ 2.53 to 10.1 µM)	< 1	8 to 32 (≈ 20.2 to 80.9 µM)	1 to 4 (≈ 2.53 to 10.1 µM)
C[C@@H](O)[C@H]1C(=O)N2C(C(=O)O)=C(S[C@@H]3CCN([C@H]4CC[C@@H](CN)CC4)C3)[C@H](C)[C@H]12 [Example 57, (4R,5S,6S)-3-(((R)-1-((1S,4S)-4-(aminomethyl)cyclohexyl)pyrrolidin-3-yl)thio)-6-((R)-1-hydroxyethyl)-4-methyl-7-oxo-1-azabicyclo[3.2.0]hept-2-ene-2-carboxylic acid]	1 to 4 (≈ 2.36 to 9.44 µM)	1 to 4 (≈ 2.36 to 9.44 µM)	1 to 4 (≈ 2.36 to 9.44 µM)	< 1	1 to 4 (≈ 2.36 to 9.44 µM)	< 1	1 to 4 (≈ 2.36 to 9.44 µM)	8 to 32 (≈ 18.9 to 75.5 µM)
C[C@@H](O)[C@H]1C(=O)N2C(C(=O)O)=C(SC3CN([C@H]4CCC[C@@H](N)C4)C3)[C@H](C)[C@H]12 [Example 15, (4R,5S,6S)-3-((1-((1S,3R)-3-aminocyclohexyl)azetidin-3-yl)thio)-6-((R)-1-hydroxyethyl)-4-methyl-7-oxo-1-azabicyclo[3.2.0]hept-2-ene-2-carboxylic acid]	8 to 32 (≈ 20.2 to 80.9 µM)	1 to 4 (≈ 2.53 to 10.1 µM)	1 to 4 (≈ 2.53 to 10.1 µM)	< 1	1 to 4 (≈ 2.53 to 10.1 µM)	< 1	1 to 4 (≈ 2.53 to 10.1 µM)	8 to 32 (≈ 20.2 to 80.9 µM)
C[C@@H](O)[C@H]1C(=O)N2C(C(=O)O)=C(S[C@H]3C[C@@H](NC4CCN(C(=N)N)CC4)C3)[C@H](C)[C@H]12 [Example 43, (4R,5S,6S)-3-(((1S,3S)-3-((1-carbamimidoylpiperidin-4-yl)amino)cyclobutyl)thio)-6-((R)-1-hydroxyethyl)-4-methyl-7-oxo-1-azabicyclo[3.2.0]hept-2-ene-2-carboxylic acid]	1 to 4 (≈ 2.29 to 9.14 µM)	< 1	< 1	< 1	1 to 4 (≈ 2.29 to 9.14 µM)	< 1	1 to 4 (≈ 2.29 to 9.14 µM)	8 to 32 (≈ 18.3 to 73.1 µM)
C[C@@H](O)[C@H]1C(=O)N2C(C(=O)O)=C(S[C@@H]3CCN(C4CCN(C)CC4)C3)[C@H](C)[C@H]12 [Example 29, (4R,5S,6S)-6-((R)-1-hydroxyethyl)-4-methyl-3-(((R)-1-(1-methylpiperidin-4-yl)pyrrolidin-3-yl)thio)-7-oxo-1-azabicyclo[3.2.0]hept-2-ene-2-carboxylic acid]	8 to 32 (≈ 19.5 to 78.1 µM)	1 to 4 (≈ 2.44 to 9.77 µM)	1 to 4 (≈ 2.44 to 9.77 µM)	< 1	8 to 32 (≈ 19.5 to 78.1 µM)	< 1	1 to 4 (≈ 2.44 to 9.77 µM)	8 to 32 (≈ 19.5 to 78.1 µM)
C[C@@H](O)[C@H]1C(=O)N2C(C(=O)O)=C(S[C@H]3C[C@@H](N[C@H]4CC[C@H](NC(=N)N)CC4)C3)[C@H](C)[C@H]12 [Example 52, (4R,5S,6S)-3-(((1S,3S)-3-(((1R,4S)-4-guanidinocyclohexyl)amino)cyclobutyl)thio)-6-((R)-1-hydroxyethyl)-4-methyl-7-oxo-1-azabicyclo[3.2.0]hept-2-ene-2-carboxylic acid]	1 to 4 (≈ 2.21 to 8.86 µM)	1 to 4 (≈ 2.21 to 8.86 µM)	< 1	< 1	1 to 4 (≈ 2.21 to 8.86 µM)	< 1	1 to 4 (≈ 2.21 to 8.86 µM)	8 to 32 (≈ 17.7 to 70.9 µM)
C[C@@H](O)[C@H]1C(=O)N2C(C(=O)O)=C(SC3CN([C@@H]4CCC[C@@H](N)C4)C3)[C@H](C)[C@H]12 [Example 16, (4R,5S,6S)-3-((1-((1R,3R)-3-aminocyclohexyl)azetidin-3-yl)thio)-6-((R)-1-hydroxyethyl)-4-methyl-7-oxo-1-azabicyclo[3.2.0]hept-2-ene-2-carboxylic acid]	8 to 32 (≈ 20.2 to 80.9 µM)	1 to 4 (≈ 2.53 to 10.1 µM)	1 to 4 (≈ 2.53 to 10.1 µM)	< 1	8 to 32 (≈ 20.2 to 80.9 µM)	< 1	1 to 4 (≈ 2.53 to 10.1 µM)	8 to 32 (≈ 20.2 to 80.9 µM)
C[C@@H](O)[C@H]1C(=O)N2C(C(=O)O)=C(SC3CN([C@H]4CCC[C@H](N)C4)C3)[C@H](C)[C@H]12 [Example 13, (4R,5S,6S)-3-((1-((1S,3S)-3-aminocyclohexyl)azetidin-3-yl)thio)-6-((R)-1-hydroxyethyl)-4-methyl-7-oxo-1-azabicyclo[3.2.0]hept-2-ene-2-carboxylic acid]	8 to 32 (≈ 20.2 to 80.9 µM)	1 to 4 (≈ 2.53 to 10.1 µM)	1 to 4 (≈ 2.53 to 10.1 µM)	< 1	8 to 32 (≈ 20.2 to 80.9 µM)	< 1	1 to 4 (≈ 2.53 to 10.1 µM)	8 to 32 (≈ 20.2 to 80.9 µM)
C[C@@H](O)[C@H]1C(=O)N2C(C(=O)O)=C(SC3CN(C[C@@H]4CCN(C(=N)N)C4)C3)[C@H](C)[C@H]12 [Example 39, (4R,5S,6S)-3-((1-(((S)-1-carbamimidoylpyrrolidin-3-yl)methyl)azetidin-3-yl)thio)-6-((R)-1-hydroxyethyl)-4-methyl-7-oxo-1-azabicyclo[3.2.0]hept-2-ene-2-carboxylic acid]	8 to 32 (≈ 18.9 to 75.6 µM)	1 to 4 (≈ 2.36 to 9.44 µM)	1 to 4 (≈ 2.36 to 9.44 µM)	< 1	8 to 32 (≈ 18.9 to 75.6 µM)	1 to 4 (≈ 2.36 to 9.44 µM)	1 to 4 (≈ 2.36 to 9.44 µM)	> 32
